How the values were obtained:
Format in all cases: functional, cell-based
HCT-116 = test: Cytotoxicity against human HCT116 cells
HT-29 = test: Cytotoxicity against human HT-29 cells
A549 = test: Cytotoxicity against human A549 cells

Measured: IC50

C[N+](C)(C)[C@@H](Cc1ccc(O)cc1)C(=O)N[C@@H]1C(=O)N[C@@H](Cc2ccccc2)C(=O)N[C@H](C(=O)[O-])Cc2ccc(cc2)O[C@@H]1c1ccccc1
> 15 µM: all assays above
